Source: the OPERA property sets (Mansouri et al. 2018)

Conditions: not given

Row | SMILES | melting point [°C] | boiling point [°C] | log10 vapour pressure (mmHg) | log10 Henry constant (atm·m³/mol) | ready biodegradability | log10 Koa | log10 Koc (L/kg)
1 | CCOC(=O)c1c(Cl)c(Cl)c(Cl)c(Cl)c1C(=O)O | 94.5 | – | – | – | – | – | –
2 | CC1=CC=CC1 | – | 72.8 | 2.09 | – | – | – | –
3 | OCc1cccc(I)c1 | – | 252 | – | – | – | – | –
4 | CCCCOC(=O)CC(=O)OCCCC | -83 | 252 | – | – | – | – | –
5 | CN(C)C | – | 2.87 | 3.21 | -3.98 | readily biodegradable | – | –
6 | NC(=O)N1CCCCC1 | 105 | – | – | – | – | – | –
7 | Clc1ccc2c(Cl)c(Cl)ccc2c1 | – | – | – | – | – | 7.5 | –
8 | Brc1ccc(-c2ccccc2)cc1 | 91.5 | 310 | -2.63 | – | readily biodegradable | – | –
9 | Nc1cc(N)nc(N)n1 | 250 | – | – | – | – | – | –
10 | Brc1ccsc1 | – | 150 | 1.22 | – | – | – | –
11 | CCCCCCCC[C@H](O)[C@H](O)CCCCCCCC(=O)O | 90 | – | – | – | – | – | –
12 | COC(=O)c1ccccc1S(=O)(=O)NC(=O)Nc1nc(OC(F)F)cc(OC(F)F)n1 | 196 | – | – | – | – | – | 1.08
13 | c1ccc2occc2c1 | – | 174 | -0.356 | – | – | – | –
14 | CP(=O)(O)CCC(N)C(=O)O (centres undefined) | – | – | – | – | readily biodegradable | – | 2.63
15 | O=C1c2ccccc2CCc2ccccc21 | 30 | – | – | – | – | – | –
16 | CC1Cc2ccccc2C1 | – | 195 | – | – | – | – | –
17 | Cc1ccc(CCl)cc1 | – | 201 | -0.527 | – | – | – | –
18 | CCCCSP(SCCCC)SCCCC | 100 | – | – | – | – | – | –
19 | CCCCCCCCCCCCCCCCCC(=O)OCC(O)CO (centres undefined) | 74 | – | – | – | readily biodegradable | – | –
20 | CCC(CC)[N+](=O)[O-] | – | – | – | – | readily biodegradable | – | –
21 | Fc1cc(F)nc(F)c1 | – | 94.5 | – | – | – | – | –
22 | Nc1ccccc1S | 26 | 234 | – | – | – | – | –
23 | CCCC(C)C(C)C(C)C (centres undefined) | – | 161 | – | – | – | – | –
24 | CCCC(O)C(=O)O (centres undefined) | 34 | – | – | – | – | – | –
25 | CCCCN(CCCC)CCCN | – | 205 | – | – | – | – | –
26 | CC=C1CCCC1 | -130 | 115 | – | – | – | – | –
27 | c1ccc(OC2CCCCC2)cc1 | – | 261 | – | – | – | – | –

Row | SMILES | melting point [°C] | boiling point [°C] | log10 vapour pressure (mmHg) | log10 Henry constant (atm·m³/mol) | ready biodegradability | log10 Koa | log10 Koc (L/kg)
28 | COc1cccc(C=O)c1O | 44.5 | 266 | – | – | – | – | –
29 | CC1CCCC1=O (centres undefined) | -75 | 140 | – | – | – | – | –
30 | C[C@]12CCC(=O)C[C@@H]1CC[C@@H]1[C@@H]2CC[C@@]2(C)[C@H]1CC[C@]2(C)O | 192 | – | – | – | – | – | –
31 | CC(C)OC(=O)C1(S(=O)(=O)c2ccc(Cl)cc2)CC1 | 89.8 | – | – | – | – | – | –
32 | CN(C)C(=O)Nc1cccc(C(F)(F)F)c1 | 164 | – | -6.03 | – | – | – | 1.9
33 | CCOS(=O)OCC | – | 158 | – | – | – | – | –
34 | O=[N+]([O-])c1cccc(Cl)c1Cl | 61.5 | 258 | – | – | not readily biodegradable | – | –
35 | CCC(N)C(=O)O (centres undefined) | 304 | – | – | – | – | – | –
36 | CCCC(=O)OCCOc1ccccc1 | – | 251 | – | – | – | – | –
37 | C=Cc1cccc(C)c1 | -86.3 | 164 | 0.231 | – | – | – | –
38 | [O-][n+]1onc2ccccc21 | 70 | – | – | – | – | – | –
39 | CC(C)CI | -93 | 121 | 1.19 | – | – | – | –
40 | Cl.Cl.Cl.Cl.Nc1ccc(-c2ccc(N)c(N)c2)cc1N | 179 | – | – | – | – | – | –
41 | CCCC(C)CO (centres undefined) | – | 149 | 0.283 | – | – | – | –
42 | O=C(O)[C@H](O)[C@@H](O)[C@H](O)[C@H](O)C(O)CO (some centres undefined) | 146 | – | – | – | – | – | –
43 | CCCCCCCCCCC(Br)C(=O)O (centres undefined) | 32 | – | – | – | – | – | –
44 | C[C@@H]1C[C@H]2[C@@H]3CCC4=CC(=O)C=C[C@]4(C)[C@@]3(F)[C@@H](O)C[C@]2(C)[C@@]1(O)C(=O)CO | 248 | – | – | – | – | – | –
45 | CNc1ccccc1C | – | 208 | – | – | not readily biodegradable | – | –
46 | C=CCCCCCC | -102 | 121 | 1.24 | – | – | 3.35 | –
47 | C1CN2CCN1CC2 | 159 | 174 | -0.13 | – | not readily biodegradable | – | –
48 | C=C(C)C1CC=C(C=O)CC1 (centres undefined) | – | 240 | – | – | – | – | –
49 | CCOCOc1ccc(C(=O)Nc2cccc(Cl)c2Cl)cc1 | 92.5 | – | – | – | – | – | –
50 | CCCC(=O)Nc1c(I)cc(I)c(CC(CC)C(=O)[O-])c1I.[Na+] (centres undefined) | 209 | – | – | – | – | – | –
51 | C=C[Si](OCC)(OCC)OCC | – | – | 0.358 | – | – | – | –
52 | CCC(C)=C(C)C | -118 | 97.5 | 1.7 | – | – | – | –
53 | CC(C)COP(=O)(OCC(C)C)OCC(C)C | – | 264 | – | – | – | – | –

Same assay, conditions: fish

Row | SMILES | log10 BCF | log10 biotransformation half-life (days)
54 | O=[N+]([O-])c1cccc(Cl)c1Cl | 2.16 | 0.54
55 | C=Cc1cccc(C)c1 | 1.55 | –
56 | CNc1ccccc1C | 0.95 | -0.74
